Measured values reported in ChEMBL document CHEMBL1697731, “Cheminformatics analysis of assertions mined from literature that describe drug-induced liver injury in different species” (Chem Res Toxicol, 2010).
*1 amine or outer side, *2 acyl side, *3 side chain or, on linkers, in order; H or OH if unused. Where a SMILES comes first, the peptide text is derived from it. Bridges are numbered along the chain shown (N, C = ends). Roman numbers before positions name the chains, in order. [ ]: non-standard residue; d: D form. Actinocin(9to1) = Cc1c2oc3c(C)ccc(C(=O)[*:1])c3nc-2c(C(=O)[*:2])c(N)c1=O; NMeV = CN[C@H](C(=O)O)C(C)C; Sar = CNCC(=O)O

Experiments:
[1] = system: Hepatotoxicity; assay: Literature-mined compound from Fourches et al multi-species drug-induced liver injury (DILI) dataset, effect in rodents; details: rodentia
[2] = system: Hepatotoxicity; assay: Literature-mined compound from Fourches et al multi-species drug-induced liver injury (DILI) dataset, effect in humans; details: human
[3] = system: Hepatotoxicity; assay: Literature-mined compound from Fourches et al multi-species drug-induced liver injury (DILI) dataset, effect in non-rodents

SMILES	Hepatotoxicity ([1]; Liver)	Hepatotoxicity ([2]; Liver)	Hepatotoxicity ([3]; Liver)	Hepatotoxicity [1]	Hepatotoxicity [2]	Hepatotoxicity [3]
Oc1ccccc1 [PHENOL]	drug-induced liver injury reported	drug-induced liver injury reported	no drug-induced liver injury reported			
O=C(Cc1cccs1)N[C@@H]1C(=O)N2C(C(=O)[O-])=C(C[n+]3ccccc3)CS[C@H]12 [CEPHALORIDINE]				no drug-induced liver injury reported	drug-induced liver injury reported	no drug-induced liver injury reported
CCOC(=O)CC(SP(=S)(OC)OC)C(=O)OCC (centres undefined) [MALATHION]				drug-induced liver injury reported	no drug-induced liver injury reported	no drug-induced liver injury reported
CC(C)NCC(O)COc1cccc2ccccc12 (centres undefined) [PROPRANOLOL]				drug-induced liver injury reported	drug-induced liver injury reported	drug-induced liver injury reported
CC(C)(Sc1cc(C(C)(C)C)c(O)c(C(C)(C)C)c1)Sc1cc(C(C)(C)C)c(O)c(C(C)(C)C)c1 [PROBUCOL]				drug-induced liver injury reported	drug-induced liver injury reported	drug-induced liver injury reported
CC(C)(C)NCC(O)c1cc(O)cc(O)c1 (centres undefined) [TERBUTALINE]				drug-induced liver injury reported	no drug-induced liver injury reported	drug-induced liver injury reported
O=C(c1ccc(F)cc1)C1CCN(CCn2c(=O)[nH]c3ccccc3c2=O)CC1 [KETANSERIN]				drug-induced liver injury reported	drug-induced liver injury reported	no drug-induced liver injury reported
O=C(O)c1ccccc1O [SALICYLIC ACID]	drug-induced liver injury reported	no drug-induced liver injury reported	no drug-induced liver injury reported			
CC(=O)O[C@H]1C[C@@]2(C)[C@@H](C[C@@H](O)[C@H]3[C@@]4(C)CC[C@@H](O)[C@@H](C)[C@@H]4CC[C@@]32C)/C1=C(\CCC=C(C)C)C(=O)O [FUSIDIC ACID]				no drug-induced liver injury reported	drug-induced liver injury reported	no drug-induced liver injury reported
CC(C)CC(N(C)C)C1(c2ccc(Cl)cc2)CCC1 (centres undefined) [SIBUTRAMINE]				no drug-induced liver injury reported	drug-induced liver injury reported	no drug-induced liver injury reported
CN[C@H](CC(C)C)C(=O)N[C@H]1C(=O)N[C@@H](CC(N)=O)C(=O)N[C@H]2C(=O)N[C@H]3C(=O)N[C@H](C(=O)N[C@H](C(=O)O)c4cc(O)cc(O)c4-c4cc3ccc4O)[C@H](O)c3ccc(c(Cl)c3)Oc3cc2cc(c3O[C@@H]2O[C@H](CO)[C@@H](O)[C@H](O)[C@H]2O[C@H]2C[C@](C)(N)[C@H](O)[C@H](C)O2)Oc2ccc(cc2Cl)[C@H]1O [VANCOMYCIN]				drug-induced liver injury reported	drug-induced liver injury reported	no drug-induced liver injury reported
Cc1c2oc3c(C)ccc(C(=O)N[C@@H]4C(=O)N[C@H](C(C)C)C(=O)N5CCC[C@H]5C(=O)N(C)CC(=O)N(C)[C@@H](C(C)C)C(=O)O[C@@H]4C)c3nc-2c(C(=O)N[C@@H]2C(=O)N[C@H](C(C)C)C(=O)N3CCC[C@H]3C(=O)N(C)CC(=O)N(C)[C@@H](C(C)C)C(=O)O[C@@H]2C)c(N)c1=O [DACTINOMYCIN] (I: T[dV]P[Sar][NMeV] / II: T[dV]P[Sar][NMeV]; ester I:1-I:C, II:1-II:C; linker I:N-II:N via Actinocin(9to1))				drug-induced liver injury reported	drug-induced liver injury reported	drug-induced liver injury reported
CCO[C@@H](Cc1ccc(OCCN2c3ccccc3Oc3ccccc32)cc1)C(=O)O [RAGAGLITAZAR]				drug-induced liver injury reported	no drug-induced liver injury reported	no drug-induced liver injury reported
CC/C=C\C/C=C\C/C=C\C/C=C\C/C=C\C/C=C\CCC(=O)O [DOCONEXENT]				drug-induced liver injury reported	drug-induced liver injury reported	no drug-induced liver injury reported
OC[C@@H](O)[C@@H](O)[C@H](O)[C@H](O)CO [MANNITOL]				drug-induced liver injury reported	drug-induced liver injury reported	drug-induced liver injury reported
CC(=O)Nc1nnc(S(N)(=O)=O)s1 [ACETAZOLAMIDE]				drug-induced liver injury reported	drug-induced liver injury reported	drug-induced liver injury reported
CC(=O)N[C@@H](CS)C(=O)O [ACETYLCYSTEINE]				drug-induced liver injury reported	drug-induced liver injury reported	no drug-induced liver injury reported

SMILES	Hepatotoxicity ([1]; Liver)	Hepatotoxicity ([2]; Liver)	Hepatotoxicity ([3]; Liver)	Hepatotoxicity [1]	Hepatotoxicity [2]	Hepatotoxicity [3]
CN(C)CCCC1(c2ccc(F)cc2)OCc2cc(C#N)ccc21 (centres undefined) [CITALOPRAM]				drug-induced liver injury reported	no drug-induced liver injury reported	no drug-induced liver injury reported
CC(C)=CCN1CC[C@]2(C)c3cc(O)ccc3C[C@H]1[C@H]2C [(+)-PENTAZOCINE]				drug-induced liver injury reported	no drug-induced liver injury reported	no drug-induced liver injury reported
O=C[C@H](O)[C@@H](O)[C@H](O)[C@H](O)CO[C@H]1O[C@H](CO[C@H]2O[C@H](CO)[C@@H](O)[C@H](O)[C@H]2O)[C@@H](O)[C@H](O)[C@H]1O [DEXTRAN]				drug-induced liver injury reported	no drug-induced liver injury reported	drug-induced liver injury reported
C#C[C@]1(O)CC[C@H]2[C@@H]3CCC4=CCCC[C@@H]4[C@H]3C(=C)C[C@@]21CC.C#C[C@]1(O)CC[C@H]2[C@@H]3CCc4cc(O)ccc4[C@H]3CC[C@@]21C [MARVELON]				no drug-induced liver injury reported	drug-induced liver injury reported	no drug-induced liver injury reported
CC(C)CN(C[C@@H](O)[C@H](Cc1ccccc1)NC(=O)O[C@H]1CCOC1)S(=O)(=O)c1ccc(N)cc1				no drug-induced liver injury reported	drug-induced liver injury reported	no drug-induced liver injury reported
O=C(O)CCCCCCNC1c2ccccc2CCc2ccccc21 [AMINEPTINE]				drug-induced liver injury reported	drug-induced liver injury reported	no drug-induced liver injury reported
CC1(C)[C@@H](OC(=O)CCC(=O)O)CC[C@]2(C)[C@H]3C(=O)C=C4[C@@H]5C[C@@](C)(C(=O)O)CC[C@]5(C)CC[C@@]4(C)[C@]3(C)CC[C@@H]12 [CARBENOXOLONE]				drug-induced liver injury reported	no drug-induced liver injury reported	no drug-induced liver injury reported
NS(=O)(=O)c1cc2c(cc1Cl)NCNS2(=O)=O [HYDROCHLOROTHIAZIDE]				no drug-induced liver injury reported	drug-induced liver injury reported	no drug-induced liver injury reported
CC(=O)Nc1c(I)cc(I)c(C(=O)[O-])c1I.O.[Na+] [ACETRIZOATE SODIUM]				drug-induced liver injury reported	no drug-induced liver injury reported	no drug-induced liver injury reported
C[C@H]1O[C@@H](O[C@H]2[C@@H](O)C[C@H](O[C@H]3[C@@H](O)C[C@H](O[C@H]4CC[C@@]5(C)[C@H](CC[C@@H]6[C@@H]5CC[C@]5(C)[C@@H](C7=CC(=O)OC7)CC[C@]65O)C4)O[C@@H]3C)O[C@@H]2C)C[C@H](O)[C@@H]1O [DIGITOXIN]				drug-induced liver injury reported	no drug-induced liver injury reported	no drug-induced liver injury reported
CNC(=O)c1cc(Oc2ccc(NC(=O)Nc3ccc(Cl)c(C(F)(F)F)c3)cc2)ccn1.Cc1ccc(S(=O)(=O)O)cc1 [SORAFENIB TOSYLATE]				no drug-induced liver injury reported	drug-induced liver injury reported	no drug-induced liver injury reported
Cc1ccc(C(C)C)cc2c(C)ccc1-2 [GUAIAZULEN]				drug-induced liver injury reported	no drug-induced liver injury reported	no drug-induced liver injury reported
CCCC1O[C@@H]2C[C@H]3[C@@H]4CCC5=CC(=O)C=C[C@]5(C)[C@H]4[C@@H](O)C[C@]3(C)[C@]2(C(=O)CO)O1 (some centres undefined) [BUDESONIDE]				drug-induced liver injury reported	drug-induced liver injury reported	no drug-induced liver injury reported
Cc1cn([C@H]2C=C[C@@H](CO)O2)c(=O)[nH]c1=O [STAVUDINE]				drug-induced liver injury reported	drug-induced liver injury reported	no drug-induced liver injury reported
COc1cc(CNC(=O)CCCC/C=C/C(C)C)ccc1O [CAPSAICIN]				drug-induced liver injury reported	drug-induced liver injury reported	no drug-induced liver injury reported
CC(=O)CC(c1ccccc1)c1c(O)c2ccccc2oc1=O (centres undefined) [WARFARIN]				drug-induced liver injury reported	drug-induced liver injury reported	no drug-induced liver injury reported
